The values that follow come from patent US9056832B2, “Pyridine compounds and the users thereof” (Purdue Pharma L.P., priority 2010, dated 2015).

Sequence of human Nav1.7 (Q15858 other isoform, or with tags, fused parts or gaps): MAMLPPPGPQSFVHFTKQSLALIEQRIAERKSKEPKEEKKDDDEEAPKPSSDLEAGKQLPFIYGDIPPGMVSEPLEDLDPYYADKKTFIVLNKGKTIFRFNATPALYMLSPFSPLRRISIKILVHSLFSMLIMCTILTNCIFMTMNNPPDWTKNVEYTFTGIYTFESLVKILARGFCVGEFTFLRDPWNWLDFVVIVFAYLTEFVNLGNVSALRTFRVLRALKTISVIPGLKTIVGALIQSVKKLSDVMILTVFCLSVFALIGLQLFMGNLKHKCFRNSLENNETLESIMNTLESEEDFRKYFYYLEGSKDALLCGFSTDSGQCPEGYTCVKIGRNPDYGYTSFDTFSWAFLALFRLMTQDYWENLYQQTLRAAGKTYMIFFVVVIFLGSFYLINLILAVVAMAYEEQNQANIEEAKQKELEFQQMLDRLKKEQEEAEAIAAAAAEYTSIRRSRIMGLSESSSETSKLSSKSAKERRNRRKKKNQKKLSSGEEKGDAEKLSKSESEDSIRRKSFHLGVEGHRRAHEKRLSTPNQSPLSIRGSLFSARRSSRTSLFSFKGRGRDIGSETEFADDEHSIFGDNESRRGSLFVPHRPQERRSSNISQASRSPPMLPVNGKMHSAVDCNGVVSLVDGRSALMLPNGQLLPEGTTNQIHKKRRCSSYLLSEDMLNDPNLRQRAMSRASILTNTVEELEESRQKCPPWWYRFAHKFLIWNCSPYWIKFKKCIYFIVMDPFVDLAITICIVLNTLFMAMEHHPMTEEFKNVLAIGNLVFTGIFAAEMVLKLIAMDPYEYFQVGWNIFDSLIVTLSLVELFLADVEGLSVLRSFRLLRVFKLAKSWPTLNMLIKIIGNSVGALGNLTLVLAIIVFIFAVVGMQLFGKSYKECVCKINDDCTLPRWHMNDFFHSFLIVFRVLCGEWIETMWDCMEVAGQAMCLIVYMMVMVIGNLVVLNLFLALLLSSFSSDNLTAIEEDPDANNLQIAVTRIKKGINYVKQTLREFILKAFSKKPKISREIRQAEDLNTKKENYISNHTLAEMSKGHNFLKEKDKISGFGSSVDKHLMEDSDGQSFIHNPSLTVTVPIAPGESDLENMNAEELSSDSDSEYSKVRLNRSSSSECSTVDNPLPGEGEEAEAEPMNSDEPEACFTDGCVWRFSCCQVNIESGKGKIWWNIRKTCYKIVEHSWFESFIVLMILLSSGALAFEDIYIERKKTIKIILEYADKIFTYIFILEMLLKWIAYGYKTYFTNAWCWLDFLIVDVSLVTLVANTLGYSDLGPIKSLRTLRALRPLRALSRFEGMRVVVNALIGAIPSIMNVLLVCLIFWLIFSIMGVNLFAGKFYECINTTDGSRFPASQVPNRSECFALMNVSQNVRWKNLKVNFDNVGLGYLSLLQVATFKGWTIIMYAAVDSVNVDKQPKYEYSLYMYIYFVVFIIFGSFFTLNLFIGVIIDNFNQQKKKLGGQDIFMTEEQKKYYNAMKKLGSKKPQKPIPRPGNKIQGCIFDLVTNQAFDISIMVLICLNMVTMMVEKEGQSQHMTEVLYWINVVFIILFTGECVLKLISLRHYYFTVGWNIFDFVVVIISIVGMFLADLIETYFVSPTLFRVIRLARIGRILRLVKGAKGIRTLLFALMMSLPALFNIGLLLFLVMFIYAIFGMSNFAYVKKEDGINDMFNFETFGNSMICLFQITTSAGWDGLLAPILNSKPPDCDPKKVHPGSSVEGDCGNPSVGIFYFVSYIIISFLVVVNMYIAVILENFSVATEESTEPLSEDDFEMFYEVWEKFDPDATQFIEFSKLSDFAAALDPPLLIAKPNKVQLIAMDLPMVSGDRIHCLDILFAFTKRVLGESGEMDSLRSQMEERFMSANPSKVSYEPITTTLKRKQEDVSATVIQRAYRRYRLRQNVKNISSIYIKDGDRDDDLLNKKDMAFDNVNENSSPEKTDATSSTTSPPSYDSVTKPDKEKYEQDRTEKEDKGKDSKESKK

One experiment concerns the target human Nav1.7 (Homo sapiens (Human), UniProt Q15858). As to the kind of experiment: FLIPR or FLIPR TETRA sodium dye assay with KCl and test article pre-incubation. Conditions: read-out: Nav1.7 IC50 (μM) ± SEM. Type of experiment: cell-based.
Regarding `OCC(O)c1cccc(-c2ccc(Oc3ccc(C(F)(F)F)cc3)cc2)n1` (stereo not shown) [compound 3, 1-(6-(4-(4-(trifluoromethyl)phenoxy)phenyl)pyridin-2-yl)ethane-1,2-diol], the half-maximal inhibitory concentration (IC50) came to 0.07 ± 0.01 µM.

With `OC[C@@H](O)c1cccc(-c2ccc(Oc3ccc(C(F)(F)F)cc3)cc2)n1` [compound 4, (S)-1-(6-(4-(4-(trifluoromethyl)phenoxy)phenyl)pyridin-2-yl)ethane-1,2-diol], the concentration for half-maximal inhibition (IC50) came to 0.12 ± 0.02 µM.

For the compound `N#Cc1ccc(Oc2ccc(-c3cccc([C@H](O)CO)n3)cc2)cc1` [compound 6, (S)-4-(4-(6-(1,2-dihydroxyethyl)pyridin-2-yl)phenoxy)benzonitrile], the IC50 was determined as 0.27 ± 0.05 µM.

In the case of `N#Cc1ccc(Oc2ccc(-c3cccc(C(O)CO)n3)cc2)cc1` (stereo not shown) [compound 8, 4-(4-(6-(1,2-dihydroxyethyl)pyridin-2-yl)phenoxy) benzonitrile], the half-inhibitory concentration (IC50) came to 0.47 ± 0.09 µM.

Regarding `N#Cc1ccc(Oc2ccc(-c3cccc(C(O)CO)n3)cc2)c(C(F)(F)F)c1` (stereo not shown) [compound 9, 4-(4-(6-(1,2-dihydroxyethyl)pyridin-2-yl)phenoxy)-3-(trifluoromethyl) benzonitrile], the IC50 worked out at 0.5 ± 0.18 µM.

Turning to `N#Cc1ccc(Oc2ccc(-c3cccc([C@@H](O)CO)n3)cc2)c(C(F)(F)F)c1` [compound 11, (R)-4-(4-(6-(1,2-dihydroxyethyl)pyridin-2-yl)phenoxy)-3-(trifluoromethyl) benzonitrile], the half-inhibitory concentration (IC50) came to 0.82 ± 0.09 µM.

`N#Cc1cc(Oc2ccc(-c3cccc(C(O)CO)n3)cc2)ccc1C(F)(F)F` (stereo not shown) [compound 12, 5-(4-(6-(1,2-dihydroxyethyl)pyridin-2-yl)phenoxy)-2-(trifluoromethyl) benzonitrile]: the IC50 was 0.89 ± 0.02 µM.

As to `N#Cc1ccc(Oc2ccc(-c3cccc([C@@H](O)CO)n3)cc2)cc1` [compound 13, (R)-4-(4-(6-(1,2-dihydroxyethyl)pyridin-2-yl)phenoxy) benzonitrile], the IC50 is 0.89 ± 0.08 µM.

Regarding `N#Cc1cc(Oc2ccc(-c3cccc([C@@H](O)CO)n3)cc2)ccc1C(F)(F)F` [compound 14, (R)-5-(4-(6-(1,2-dihydroxyethyl)pyridin-2-yl)phenoxy)-2-(trifluoromethyl) benzonitrile], the IC50 stood at 1.3 ± 0.3 µM.

Still in this experiment, the particulars now being: recombinant human Nav1.7 in HEK293 cells; CoroNa Green sodium dye; veratridine + scorpion venom; read-out: Nav1.7 IC50 (μM) ± SEM.
In the case of `CC(C)NC(=O)N1CCN(c2cc(-c3ccc(Oc4ccc(F)cc4)cc3)nc([C@@H](O)CO)c2)CC1` [compound 7, (R)-4-(2-(1,2-dihydroxyethyl)-6-(4-(4-fluorophenoxy)phenyl)pyridin-4-yl)-N-isopropyl piperazine-1-carboxamide], the concentration for half-maximal inhibition (IC50) stood at 0.32 ± 0.02 µM.

With `N#Cc1cc(C(F)(F)F)ccc1Oc1ccc(-c2cccc(C(O)CO)n2)cc1` (stereo not shown) [compound 10, 2-(4-(6-(1,2-dihydroxyethyl)pyridin-2-yl)phenoxy)-5-(trifluoromethyl) benzonitrile], the IC50 came to 0.52 ± 0.11 µM.

For `OCC(O)c1cccc(-c2ccc(Oc3ncc(C(F)(F)F)cc3Cl)cc2)n1` (stereo not shown) [compound 15, 1-(6-(4-((3-chloro-5-(trifluoromethyl)pyridin-2-yl)oxy)phenyl)pyridin-2-yl) ethane-1,2-diol], the half-maximal inhibitory concentration (IC50) worked out at 1.42 ± 0.24 µM.

With `OCC(O)c1cccc(-c2ccc(Oc3ccc(C(F)(F)F)cn3)cc2)n1` (stereo not shown) [compound 16, 1-(6-(4-((5-(trifluoromethyl)pyridin-2-yl)oxy)phenyl)pyridin-2-yl) ethane-1,2-diol], the 50% inhibitory concentration (IC50) stood at 1.71 ± 0.24 µM.

In the case of `Cc1ccc(Oc2ccc(-c3cccc(C(O)CO)n3)cc2)cn1` (stereo not shown) [compound 17, 1-(6-(4-((6-methylpyridin-3-yl)oxy)phenyl)pyridin-2-yl)ethane-1,2-diol], the IC50 was 2.77 ± 0.41 µM.

Regarding `CC(=O)c1ccc(Oc2ccc(-c3cccc(C(O)CO)n3)cc2)c(C(F)(F)F)c1` (stereo not shown) [compound 20, 1-(4-(4-(6-(1,2-dihydroxyethyl)pyridin-2-yl)phenoxy)-3-(trifluoromethyl)phenyl)ethanone], the IC50 was 2.95 ± 0.76 µM.

Regarding `OC[C@H](O)c1cc(N2CCNCC2)cc(-c2ccc(Oc3ccc(F)cc3)cc2)n1` [compound 21, (R)-1-(6-(4-(4-fluorophenoxy)phenyl)-4-(piperazin-1-yl)pyridin-2-yl)ethane-1,2-diol], the half-inhibitory concentration (IC50) is 2.97 ± 0.91 µM.
